Laboratory results as given in patent US20230183640A1, “METABOLIC INHIBITORS WITH EFFICACY FOR INHIBITING SULFIDE PRODUCTION IN HARSH ENVIRONMENTS” (MC (US) 3 LLC, priority 2020, published 2023).

Tests used:
[1] = tested on: Desulfovibrio alaskensis 14563; test: H2S and Log (Growth) efficacy against SRB, 96-Well Plate Method; format: cell-based
Procedure: (§1) A lyophilized Desulfovibrio alaskensis 14563, Desulfovibrio longus 51456, and Desulfovibrio gabonensis 700201 pure cultures received from ATCC were resuspended individually in 500 ul of MB 1250. Aseptically, the content was transferred to a 5-mL tube of MB1250 medium. The cultures were incubated in an anaerobic chamber at 30° C. for 72 hrs. Subsequently, an individual stock culture with a final concentration of 25% glycerol were prepared by adding equal volumes of culture and 50% glycerol. 1 ml of the cultures were then transferred to 2-ml cryogenic vials and stored at −80° C. The purity of the stock cultures was evaluated through PCR, by amplifying the 16S rDNA region, and thus, it was verified that the original ATCC sample was a pure culture. 48-hour cultures of ATCC Desulfovibrio alaskensis 14563, Desulfovibrio longus 51456, and Desulfovibrio gabonensis 700201 were prepared in an anaerobic chamber. Each culture was prepared as a 1:10 culture by taking 1 milliliter (mL) of a pure culture and inoculating 9 milliliters (mL) of fresh MB1250 media. The Desulfovibrio alaskensis 14563 and Desulfovibrio gabonensis 700201 were all grown at 30° C. and the Desulfovibrio longus 51456 culture was grown at 35° C.
After the 48-hour incubation, 600 microliters (μL) were taken from each culture and optical density (OD) was measured using a Thermofisher Spectronic 200 Spectrophotometer at 600 nm. Each culture was diluted to 0.05 OD600 in fresh MB1250 media and added to the 96 well plates. Edge wells were not used due to their inherent variability and evaporation of the media. Each of the components were added at their respective concentrations for a final volume of 500 μL per well. In Table 3, 6 and 7, the concentrations of the compound used for the experiments are listed. Each experiment was done with at least three replicates for different treatments and non-treatment controls. […] Plates were then sealed with a titer-top and placed into anaerobic boxes and incubated in an anaerobic incubator at 30° C.
At each time point, sulfide samples were taken, and enumeration plates were made. Enumeration plates were made to determine the log growth in each dosed sample. For this process, enumeration plates were prepared by adding 180 μL fresh media MB1250 containing 0.01 wt % ferrous ammonium sulfate. 20 μL was taken from each well of the challenge plates and transferred to the enumeration plates using a 20-200 μL multichannel pipette. Enumeration plates were mixed three times using the multichannel pipette and serial diluted down the plate tenfold (20 μL into 180 μL). This serial dilution process was repeated for all challenge plate rows giving a total of 6 enumeration plates.
After 7 days these enumeration plates were read. The ferrous ammonium sulfate in each plate would be converted to iron sulfide, changing wells with SRB growth from clear to black. By counting the number of black wells in a row, the log growth from the original well in the challenge plate can be determined.
To determine hydrogen sulfide production in each sample, sulfide samples were also taken from each challenge plate. From each well, 9 μL were taken and added to 60 μL of 2% zinc acetate with 0.02% acetic acid. Then, 180 μL of milliQ water was added. 60 μL of stock solution 1 containing 64% sulfuric acid, <1% Dimethyl-4-phenylenediamine (DMPD), water to 100% was added to each well on the plates. This was followed by 3 μL of stock solution 3 containing 50% Iron (III) chloride. All chemicals are ordered from Fisher Scientific and used as received. These were mixed three times and read after 15 minutes. The plates were read at 670 nm using a Biotek microplate reader. Absorbance readings were converted to mM using a standard curve and this was converted to parts per million using the molar mass of sulfur. The standard curves were made using sodium sulfide nonahydrate solutions to give final solutions of 0, 0.125, 0.25 0.5, 1.0, and 1.5 ppm.

[2] = tested on: Desulfovibrio alaskensis 14563; test: H2S and Log (Growth) efficacy, 10 mL Serum Vial Method; format: cell-based
Procedure: as §1
After the 48-hour incubation, 600 microliters (μL) were taken from the Desulfovibrio alaskensis 14563 culture and optical density (OD) was measured using a Thermofisher Spectronic 200 Spectrophotometer at 600 nm. Each culture was diluted to 0.05 OD600 in fresh MB1250 media and 5 mL of culture solution is transferred to 10 mL Vials and compound Cis stock solution is added. In Table 4 and 5, the concentrations of the compound C1 used for the experiments are listed. Each experiment was done with at least three replicates for different treatments and non-treatment controls. At 2 days, 3 days and 5 days, enumeration plates were made, and sulfide samples were taken in triplicate.
The enumerations were done in triplicate having 20 μL taken from each vial and placing them into 3 wells of first row in a 96-well plate. Then, the same serial dilution process was done with the test plate procedure as described in 96-well plate method. These enumerations were read after 7 days of growth at 30° C. in the anaerobic chamber. For the sulfide assay, 9 μL were taken from each vial and placed in 3 wells with 2% zinc acetate. The assay procedure was the same as described in 96-well plate method.

With `O=C(CN1C(=O)c2cccc3cccc(c23)C1=O)NO` [C1] the H2S ([1]; 3 days, 6.4 PPM) was 15.5 PPM, the “Log (Growth)” value ([1]; 3 days, 6.4 PPM) was 2.7 and the H2S ([1]; 3 days, 12.8 PPM) was 13.5 PPM. For the same compound, the “Log (Growth)” value ([1]; 3 days, 12.8 PPM) was 2.0, the H2S ([1]; 3 days, 25.6 PPM) was 15.1 PPM and the “Log (Growth)” value ([1]; 3 days, 25.6 PPM) was 0.0. The H2S ([1]; 3 days, 51.3 PPM) was 15.4 PPM, the “Log (Growth)” value ([1]; 3 days, 51.3 PPM) was 0.0 and the H2S ([1]; 3 days, 102.5 PPM) was 13.6 PPM. For the same compound, the “Log (Growth)” value ([1]; 3 days, 102.5 PPM) was 0.3, the H2S ([1]; 3 days, 205.0 PPM) was 12.7 PPM and the “Log (Growth)” value ([1]; 3 days, 205.0 PPM) was 0.3. For the same compound, the H2S ([1]; 6 days, 6.4 PPM) was 18.1 PPM, the “Log (Growth)” value ([1]; 6 days, 6.4 PPM) was 3.3 and the H2S ([1]; 6 days, 12.8 PPM) was 23.5 PPM. The “Log (Growth)” value ([1]; 6 days, 12.8 PPM) was 2.7, the H2S ([1]; 6 days, 25.6 PPM) was 8.8 PPM and the “Log (Growth)” value ([1]; 6 days, 25.6 PPM) was 1.0. For the same compound, the H2S ([1]; 6 days, 51.3 PPM) was 8.3 PPM, the “Log (Growth)” value ([1]; 6 days, 51.3 PPM) was 0.0 and the H2S ([1]; 6 days, 102.5 PPM) was 8.7 PPM. The “Log (Growth)” value ([1]; 6 days, 102.5 PPM) was 0.0, the H2S ([1]; 6 days, 205.0 PPM) was 9.0 PPM and the “Log (Growth)” value ([1]; 6 days, 205.0 PPM) was 0.0. The H2S ([2]; 2 days, 0.09 PPM) was 233.1 PPM, the “Log (Growth)” value ([2]; 2 days, 0.09 PPM) was 7.9 and the H2S ([2]; 2 days, 0.19 PPM) was 202.1 PPM. For the same compound, the “Log (Growth)” value ([2]; 2 days, 0.19 PPM) was 8.0, the H2S ([2]; 2 days, 0.38 PPM) was 170.4 PPM and the “Log (Growth)” value ([2]; 2 days, 0.38 PPM) was 7.8. The H2S ([2]; 2 days, 0.75 PPM) was 121.6 PPM, the “Log (Growth)” value ([2]; 2 days, 0.75 PPM) was 7.2 and the H2S ([2]; 3 days, 0.75 PPM) was 190.2 PPM. The “Log (Growth)” value ([2]; 3 days, 0.75 PPM) was 7.4, the H2S ([2]; 3 days, 1.5 PPM) was 50.1 PPM and the “Log (Growth)” value ([2]; 3 days, 1.5 PPM) was 4.8. For the same compound, the H2S ([2]; 3 days, 3.0 PPM) was 23.1 PPM, the “Log (Growth)” value ([2]; 3 days, 3.0 PPM) was 4.0 and the H2S ([2]; 3 days, 6.0 PPM) was 19.2 PPM. The “Log (Growth)” value ([2]; 3 days, 6.0 PPM) was 0.0, the H2S ([2]; 5 days, 0.75 PPM) was 253.3 PPM and the “Log (Growth)” value ([2]; 5 days, 0.75 PPM) was 7.9. For the same compound, the H2S ([2]; 5 days, 1.5 PPM) was 69.9 PPM, the “Log (Growth)” value ([2]; 5 days, 1.5 PPM) was 6.2 and the H2S ([2]; 5 days, 3.0 PPM) was 19.5 PPM. The “Log (Growth)” value ([2]; 5 days, 3.0 PPM) was 1.0, the H2S ([2]; 5 days, 6.0 PPM) was 15 PPM and the “Log (Growth)” value ([2]; 5 days, 6.0 PPM) was 0.0.
